IC50 data for eight molecules are collected here from patent US20170022171A1, “2,5-DISUBSTITUTED CYCLOPENTANECARBOXYLIC ACIDS AND THEIR USE” (Bayer Pharma Aktiengesellschaft, priority 2014, published 2017).

One may read the IC50 as the concentration needed to halve the response being measured.

Format in all cases: biochemical
The target in one assay is T1, mouse MMP-3 (Mus musculus, UniProt P28862).
T1 construct: purchased R&D Systems 548-MP
In words: In vitro mouse MMP-3 inhibition test. From the text: (§1) The MMP-mediated amidolytic cleavage of a suitable peptide substrate leads to an increase in fluorescent light here too. The signal intensity of the fluorescent light is directly proportional to the enzyme activity. The active concentration of a test compound at which half the enzyme is inhibited (50% signal intensity of the fluorescent light) is reported as the IC50 value.
(§2) Recombinant mouse MMP-3 (from R&D Systems, 548-MP) is chemically activated in accordance with the manufacturer's instructions using APMA. 1 μl of the test compound to be analysed (as a solution in DMSO, suitable concentrations, for example, 1 nM to 30 μM) is pipetted into 24 μl of activated enzyme (final concentration, for example, 0.5 nM) in reaction buffer (50 mM Tris/HCl pH 7.5, 10 mM CaCl2, 150 mM NaCl, 0.05% Brij®-35) in a white 384-hole microtiter plate (MTP). The enzymatic reaction is started by adding the intramolecularly quenched Mca-Arg-Pro-Lys-Pro-Val-Glu-Nval-Trp-Arg-Lys(Dnp)-NH2 substrate (final concentration, for example, 5 μM; R&D Systems, ES-002), so as to result in a total test volume of 50 μl. The course of the MMP-3 reaction is measured by measuring the fluorescence intensity (excitation 320 nm, emission 410 nm) over a suitable period of time (for example over 120 min at a temperature of 32° C.).

The next assay deals with T2, mouse MMP-7 (Mus musculus, UniProt Q10738).
T2 construct: purchased R&D Systems 2967-MP
T2 sequence (Q10738 95-264): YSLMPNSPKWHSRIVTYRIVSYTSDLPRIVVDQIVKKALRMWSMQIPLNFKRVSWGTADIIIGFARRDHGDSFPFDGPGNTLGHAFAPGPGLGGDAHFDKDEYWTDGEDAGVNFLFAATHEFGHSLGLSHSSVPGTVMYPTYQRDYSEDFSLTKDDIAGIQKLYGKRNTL
In words: In vitro mouse MMP-7 inhibition test.
Text: as §1
as §2, with “MMP-7” for “MMP-3”, “2967-MP)” for “548-MP)”, “Mca-Lys-Pro-Leu-Gly-Leu-Dpa(Dnp)-Ala-Arg-NH2” for “Mca-Arg-Pro-Lys-Pro-Val-Glu-Nval-Trp-Arg-Lys(Dnp)-NH2”, “ES-010),” for “ES-002),”

A further assay has as its target T3, mouse MMP-8 (Mus musculus, UniProt O70138).
T3 construct: purchased R&D Systems 2904-MP
In words: In vitro mouse MMP-8 inhibition test.
Text: as §1
as §2, with “MMP-8” for “MMP-3”, “2904-MP)” for “548-MP)”, “2” for “0.5”, “Mca-Lys-Pro-Leu-Gly-Leu-Dpa(Dnp)-Ala-Arg-NH2” for “Mca-Arg-Pro-Lys-Pro-Val-Glu-Nval-Trp-Arg-Lys(Dnp)-NH2”, “ES-010),” for “ES-002),”

A further assay addresses T4, mouse MMP-12 (Mus musculus, UniProt P34960).
T4 construct: purchased R&D Systems 3467-MP
As to the kind of experiment: In vitro mouse MMP-12 inhibition test (standard or high-sensitivity).
Text: as §1
Recombinant mouse MMP-12 (from R&D Systems, 3467-MP) is autocatalytically activated in accordance with the manufacturer's instructions. 1 μl of the test compound to be analysed (as a solution in DMSO, suitable concentrations, for example, 1 nM to 30 μM) is pipetted into 24 μl of activated enzyme (final concentration, for example, 1 nM) in reaction buffer (50 mM Tris/HCl pH 7.5, 10 mM CaCl2, 150 mM NaCl, 0.05% Brij®-35) in a white 384-hole microtiter plate (MTP). The enzymatic reaction is started by adding the intramolecularly quenched Mca-Lys-Pro-Leu-Gly-Leu-Dpa(Dnp)-Ala-Arg-NH2 substrate (final concentration, for example, 5 μM; R&D Systems, ES-010), so as to result in a total test volume of 50 The course of the MMP-12 reaction is measured by measuring the fluorescence intensity (excitation 320 nm, emission 410 nm) over a suitable period of time (for example over 120 min at a temperature of 32° C.).
In this case, an enzyme concentration ten times lower is used (final concentration, for example, 0.1 nM) in order to achieve an elevated test sensitivity. The incubation period chosen for the test is correspondingly longer (for example 16 hours).

T1 sequence (P28862 100-477): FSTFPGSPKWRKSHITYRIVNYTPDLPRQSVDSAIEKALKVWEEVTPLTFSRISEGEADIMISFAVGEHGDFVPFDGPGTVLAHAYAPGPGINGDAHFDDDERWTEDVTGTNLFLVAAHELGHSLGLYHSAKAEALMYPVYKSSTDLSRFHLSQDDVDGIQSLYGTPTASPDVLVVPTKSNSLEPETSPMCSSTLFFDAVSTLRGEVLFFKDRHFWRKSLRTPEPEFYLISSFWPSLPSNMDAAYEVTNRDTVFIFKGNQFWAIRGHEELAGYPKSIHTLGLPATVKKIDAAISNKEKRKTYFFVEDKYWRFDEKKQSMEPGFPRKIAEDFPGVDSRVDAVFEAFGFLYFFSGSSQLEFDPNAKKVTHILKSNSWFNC
T3 sequence (O70138 101-465): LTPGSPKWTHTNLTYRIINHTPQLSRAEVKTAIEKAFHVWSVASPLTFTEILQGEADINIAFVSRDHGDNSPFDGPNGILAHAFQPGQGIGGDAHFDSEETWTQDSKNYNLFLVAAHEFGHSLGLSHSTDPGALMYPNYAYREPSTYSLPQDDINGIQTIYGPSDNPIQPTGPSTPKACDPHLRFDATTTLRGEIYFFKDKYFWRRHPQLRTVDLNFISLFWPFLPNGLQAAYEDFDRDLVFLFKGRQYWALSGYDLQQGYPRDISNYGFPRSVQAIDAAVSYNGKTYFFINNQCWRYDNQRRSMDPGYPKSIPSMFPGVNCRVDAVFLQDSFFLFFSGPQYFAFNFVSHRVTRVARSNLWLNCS
T4 sequence (P34960 110-473): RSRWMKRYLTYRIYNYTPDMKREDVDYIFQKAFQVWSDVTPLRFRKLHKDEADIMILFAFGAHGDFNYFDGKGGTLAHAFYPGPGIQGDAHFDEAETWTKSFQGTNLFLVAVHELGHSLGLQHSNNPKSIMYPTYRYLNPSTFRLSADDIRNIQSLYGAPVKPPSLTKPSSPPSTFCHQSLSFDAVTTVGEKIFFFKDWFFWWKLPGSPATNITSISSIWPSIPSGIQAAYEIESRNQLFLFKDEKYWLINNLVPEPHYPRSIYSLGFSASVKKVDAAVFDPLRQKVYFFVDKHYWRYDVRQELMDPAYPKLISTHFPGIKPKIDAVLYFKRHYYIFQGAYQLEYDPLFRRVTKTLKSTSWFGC

Consider `O=C(O)[C@H]1[C@H](Cn2nnc3ccc(C(F)(F)F)cc3c2=O)CC[C@@H]1C(=O)c1ccc(OCc2ccccc2)cc1` (racemic) [Example 11, (+/−)-(1RS,2RS,5SR)-2-[4-(Benzyloxy)benzoyl]-5-{[4-oxo-6-(trifluoromethyl)-1,2,3-benzotriazin-3(4H)-yl]methyl}cyclopentanecarboxylic acid], for which the IC50 at mouse MMP-3 worked out at 590 nM; on mouse MMP-7, 23 nM; at mouse MMP-8, 18 nM; at mouse MMP-12, 1.8 nM.
Regarding `Cc1ccc2nnn(C[C@H]3CC[C@@H](C(=O)c4ccc(OCc5cccc(OC(F)(F)F)c5)cc4)[C@@H]3C(=O)O)c(=O)c2c1` (single isomer, unassigned) [Example 110, (+)-(1RS,2SR,5RS)-2-[(6-Methyl-4-oxo-1,2,3-benzotriazin-3(4H)-yl)methyl]-5-(4-{[3-(trifluoromethoxy)benzyl]oxy}benzoyl)cyclopentanecarboxylic acid], the IC50 was 2400 nM against mouse MMP-3, 220 nM at mouse MMP-7, 420 nM against mouse MMP-8 and 0.72 nM on mouse MMP-12.
As for `Cc1ccc2nnn(C[C@@H]3CC[C@H](C(=O)c4ccc(OCc5cccc(OC(F)(F)F)c5)cc4)[C@H]3C(=O)O)c(=O)c2c1` (racemic) [Example 109, (+/−)-(1RS,2SR,5RS)-2-[(6-Methyl-4-oxo-1,2,3-benzotriazin-3(4H)-yl)methyl]-5-(4-{[3-(trifluoromethoxy)benzyl]oxy}benzoyl)cyclopentanecarboxylic acid], the IC50 against mouse MMP-3 was determined as 1100 nM; on mouse MMP-7 it was 250 nM; against mouse MMP-8, 450 nM; at mouse MMP-12, 3 nM.
As for `Cc1ccc2nnn(C[C@@H]3CC[C@H](C(=O)c4ccc(OCc5ccccc5)cc4)[C@H]3C(=O)O)c(=O)c2c1` (racemic) [Example 91, (+/−)-(1RS,2RS,5SR)-2-[4-(Benzyloxy)benzoyl]-5-[(6-methyl-4-oxo-1,2,3-benzotriazin-3(4H)-yl)methyl]cyclopentanecarboxylic acid], the IC50 at mouse MMP-3 was found to be 400 nM; at mouse MMP-7, 22 nM; on mouse MMP-8 it was 26 nM; at mouse MMP-12, 0.86 nM.
Regarding `Cc1ccc2nnn(C[C@H]3CC[C@@H](C(=O)c4ccc(OCc5cccc(C(F)(F)F)c5)cc4)[C@@H]3C(=O)O)c(=O)c2c1` (single isomer, unassigned) [Example 101, (+)-(1RS,2SR,5RS)-2-[(6-Methyl-4-oxo-1,2,3-benzotriazin-3(4H)-yl)methyl]-5-(4-{[3-(trifluoromethyl)benzyl]oxy}benzoyl)cyclopentanecarboxylic acid], the IC50 at mouse MMP-3 was determined as 1300 nM; on mouse MMP-7 it was 76 nM; at mouse MMP-8 it was 120 nM; against mouse MMP-12 it was 1.1 nM.
The like results for `O=C(O)[C@H]1[C@H](Cn2nnc3ccc(C(F)(F)F)cc3c2=O)CC[C@@H]1C(=O)c1ccc(OCCCc2ccccc2)cc1` (racemic) [Example 39, (+/−)-(1RS,2SR,5RS)-2-{[4-Oxo-6-(trifluoromethyl)-1,2,3-benzotriazin-3(4H)-yl]methyl}-5-[4-(3-phenylpropoxy)benzoyl]cyclopentanecarboxylic acid] were, in that order, 9500 nM, 230 nM, 640 nM and 11 nM.
The corresponding values for `O=C(O)[C@H]1[C@H](Cn2nnc3ccc(C(F)(F)F)cc3c2=O)CC[C@@H]1C(=O)c1ccc(OCCCC2CCCCC2)cc1` (racemic) [Example 56, (+/−)-(1RS,2RS,5SR)-2-{4-(3-Cyclohexylpropoxy)benzoyl}-5-{[4-oxo-6-(trifluoromethyl)-1,2,3-benzotriazin-3(4H)-yl]methyl}cyclopentanecarboxylic acid] are greater than 40000 nM, 990 nM, 1100 nM and 21 nM.
The corresponding values for `Cc1cccc(COc2ccc(C(=O)[C@H]3CC[C@@H](Cn4nnc5ccc(C)cc5c4=O)[C@@H]3C(=O)O)cc2)c1` (racemic) [Example 97, (+/−)-(1RS,2RS,5SR)-2-{4-[(3-Methylbenzyl)oxy]benzoyl}-5-[(6-methyl-4-oxo-1,2,3-benzotriazin-3(4H)-yl)methyl]cyclopentanecarboxylic acid] are 4600 nM, 160 nM, 1300 nM and 6.1 nM.
